pEC50, pKi: −log10 of the molar value. “Also recorded” adds a separate entry of the source. Read-outs that look alike come from different tables or passages of the source.
How the values were obtained:
PKC [1] = conditions: cited from earlier work
[2] = system: sAPPα secretion, AD cell line AG06848; assay: sAPPα secretion immunoblot, AD fibroblasts; format: cell-based, human
Description: Cultured skin fibroblasts were obtained from the Coriell Cell Repositories and grown using the general guidelines established for their culture with slight modifications (Cristofalo & Carpentier, 1988; Hirashima et al., 1996). The culture medium in which cells were grown was Dulbecco's modified Eagle's medium (GIBCO) supplemented with 10% fetal calf serum (Biofluids, Inc.). Fibroblasts from control cell lines (AC), cases AG07141 and AG06241, and a familial AD (FAD) case (AG06848) were utilized.
Cells grown to confluence in 6 cm Petri dishes for 5-7 days. On the day of the experiment, medium was replaced with DMEM without serum and left undisturbed for 2 h. Upon completion of the 2 hour serum deprivation; treatment was achieved by direct application to the medium of Bryo, BL and DMSO at the appropriate concentrations. (0.1 and 0.01 nM for bryostatin; 0.1 nM, 0.1 μM, and 1 μM BL). DMSO was less than 1% in all cases. In most cases, medium was collected and processed after 3 hours of treatment for sAPP secretion. Other time points were also used to establish a time course of secretion.
sAPP—Determinations/Measurements of sAPPα
The concentration of secreted APP was measured using conventional immunoblotting techniques, with minor modifications the protocol. Precipitated protein extracts from each dish/treatment were loaded to freshly prepared 10% acrylamide Tris-HCl minigels and separated by SDPAGE. The volume of sample loaded was corrected for total cell protein per dish. Proteins were then electrophoretically transferred to PVDF membranes. Membranes were saturated with 5% non-fat dry milk to block non-specific binding. Blocked membranes were incubated overnight at 4° C. with the commercially available antibody 6E10 (1:500), which recognizes sAPP-alpha in the conditioned medium (SENETEK). After washing, the membranes were incubated at room temperature with horseradish peroxidase conjugated anti-mouse IgG secondary antibody (Jackson's Laboratories). The signal was then detected using enhanced chemiluminescence followed by exposure of Hyperfilm ECL (Amersham). The band intensities were quantified by densitometry using a BioRad GS-800 calibrated scanning densitometer and Multianalyst software (BioRad).

[3] = system: Transgenic mice carrying the V7171 mutation; assay: Transgenic mice carrying the V7171 APP mutation, APP species in brain and health; format: in vivo; conditions: for deaths: 5-6 months old animals
Description: Transgenic mice carrying the V7171 mutation were treated with BL (1 mg/kg, i.p.; daily) from […] of age (after weaning) for 17 weeks (n=4). The control group (n=4) received vehicle alone (Tween 20 1%, DMSO 25%, 74% PBS). Another experimental group consisted of 5-6 months old animals treated for 7 weeks. Subgroups of these animals were treated with BL 1 mg/kg, daily (n=5); BL 10 mg/kg, daily (n=3; due to two deaths); BL 10 mg/kg, weekly (n=4; one death), LQ12 10 mg/kg, daily (n=5); and LQ12 10 mg/kg, weekly (n=5). Five additional animals received vehicle alone for the same period. After completion of the treatment, animals were euthanized according to K.U.L. (Belgium) guidelines. Brains were removed and prepared for biochemical analyses of APP species.
Immunoblot analysis. The biochemical analysis of intermediates of APP metabolism has been described elsewhere by Dewachter et al. (Aging increased amyloid peptide and caused amyloid plaques in brain of old APP/V7171 transgenic mice by a different mechanism than mutant presenilinl. J. Neurosci. 2000; 20:6452-8.). Briefly, brains were homogenized in 6.5 vol. of ice-cold buffer containing 20 mm Tris-HCl, pH 8.5, and a mixture of proteinase inhibitors (Roche, Darmstadt, Germany). After centrifugation at 135,000×g at 4° C. for 1 hr, the supernatant was centrifuged again for 2 hr at 200,000×g before analysis of soluble amyloid peptides by specified ELISA. The pellets from the first centrifugation were resuspended in TBS containing 2% Triton X-100, 2% Nonidet P40 and proteinase inhibitors and centrifuged at 100.000×g at 4° C. for 1 hr. This protein fraction was used for analysis of membrane-bound APP. Western blotting of membrane bound APP was performed on this protein fraction containing membrane-bound proteins, with monoclonal antibody 8E5. Total secreted APP and a-secretase cleaved secreted APP-a were detected by Western blotting analysis on the supernatant of the first centrifugation, with monoclonal antibody 8E5 and monoclonal antibody JRF14, respectively. Proteins were denatured and reduced in sample buffer containing a final concentration of 2% SDS, 1% 2-ME and separated on 8% TRIS Glycine gels (Novex, San Diego, Calif.). After incubation with appropriate secondary antibodies, all Western blots were developed with the ECL detection system and photographically recorded. Application of a series of diluted sample allowed quantitation. Densitometric scanning of films and normalization were performed using a flatbed optical density scanner and dedicated software for analysis and measurement (Image Master; Pharmacia, Uppsala, Sweden).
ELISA of amyloid peptides. Protein extracts were applied on reversed-phase columns (C18-Sep-pack cartridges; Waters Corporation, Milford, Mass.) and washed with increasing concentrations of acetonitrile (5, 25, and 50%) containing 0.1% trifluoroacetic acid. The last fraction contained the amyloid peptides and was dried in vacuo overnight and dissolved for measurements in ELISA. Sandwich ELISA for human […] peptides was performed using the capture antiserum JRF/cAβ40/10 and 21F12, respectively, and they were developed with monoclonal antibodies JRFcAβ/tot/14 hrpo and 3D6, respectively (Vanderstichele H, Van Kerschaver E, Hese C, Davidsson P, Buyse M A, Andreansen N, Minthon L, Wallin A, Blennow K, Vanmechelen E. Standardization of measurements of beta-amyloid (1-42) in cerebrospinal fluid and plasma. Amyloid 2000; 7: 245-258).
Standard general health assessment and open field were conducted in all animals prior to the biochemical assessments. In addition, a semi-quantitative ad hoc score was devised to measure abdominal contractions that followed the injections (+=weak, <2 min; […]).

[4] = system: sAPP secretion, AD fibroblasts; conditions: benzolactam-treated cells; cited from earlier work
[5] = system: sAPP secretion, control fibroblasts; conditions: cited from earlier work
PKCε = molecular target: T1, PKCε (Homo sapiens, UniProt Q02156); conditions: cited from earlier work
T1 sequence (Q02156 1-737): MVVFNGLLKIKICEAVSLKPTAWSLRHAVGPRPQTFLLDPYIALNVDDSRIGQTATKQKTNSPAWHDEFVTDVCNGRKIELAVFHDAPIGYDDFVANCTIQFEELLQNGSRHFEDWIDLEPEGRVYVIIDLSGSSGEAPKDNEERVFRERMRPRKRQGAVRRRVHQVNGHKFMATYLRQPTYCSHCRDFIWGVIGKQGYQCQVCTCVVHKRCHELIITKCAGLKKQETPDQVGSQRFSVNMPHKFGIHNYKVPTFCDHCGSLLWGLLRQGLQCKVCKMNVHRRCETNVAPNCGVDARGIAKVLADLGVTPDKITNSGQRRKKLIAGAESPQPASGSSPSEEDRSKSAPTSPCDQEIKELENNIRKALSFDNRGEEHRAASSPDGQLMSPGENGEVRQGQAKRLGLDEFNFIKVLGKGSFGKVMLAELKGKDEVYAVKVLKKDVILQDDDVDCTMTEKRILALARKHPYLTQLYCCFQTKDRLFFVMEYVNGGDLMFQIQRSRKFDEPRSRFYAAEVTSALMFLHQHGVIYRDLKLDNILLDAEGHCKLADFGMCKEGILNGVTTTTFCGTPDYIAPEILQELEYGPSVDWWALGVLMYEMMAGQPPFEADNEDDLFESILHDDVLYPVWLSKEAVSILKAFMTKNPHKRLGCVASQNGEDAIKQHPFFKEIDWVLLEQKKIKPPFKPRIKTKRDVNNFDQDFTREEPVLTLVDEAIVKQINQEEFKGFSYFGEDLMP

PKC [6] = conditions: competes with [3H]phorbol dibutyrate; read-out: Ki for binding; cited from earlier work
[7] = system: squamous cell carcinoma and melanoma; conditions: used topically; cited from earlier work
NCI 60 cell line screen = conditions: cited from earlier work
protein kinase C = conditions: (−)-enantiomer; cited from earlier work
[8] = 1 mg/kg i.p. daily from 3 weeks of age for 17 weeks
[9] = 1 mg/kg i.p. daily from 3 weeks of age for 17 weeks, vs vehicle
[10] = 6 months old animals, 7 weeks, 10 mg/kg daily
[11] = 6 months old animals, 7 weeks, 10 mg/kg weekly
[12] = A-ring bryologs, read-out: affinity for PKC

In the case of CCCCCCCC(=O)O[C@H]1/C(=C/C(=O)OC)C[C@H]2C[C@H](CO)OC(=O)C[C@H](O)CCOCC[C@@H]3CCO[C@H](/C=C/C(C)(C)[C@]1(O)O2)O3 [Analog 2], the “affinity for PKC, in words” value (PKC [1]) is listed as “high affinity” and the pKi (PKC [1]; read-out: PKC Affin) is listed as 8.19.
For CCCCCCCCC#Cc1ccc2c(c1)C[C@@H](CO)NC(=O)[C@H](C(C)C)N2C [BL, benzolactam], the “secretion of sAPPα” value ([2]; AD cell line AG06848, 0.1 nM, three hours of treatment, relative to DMSO) was “no real impact on secretion”, the APP membrane-bound [3, 8] was “no differences” and the “amount of Aβ42” value [3, 8] was “no differences”. The “total secreted sAPP (sAPPα+sAPPβ)” value [3, 8] was “no differences”, the Aβ40 in brain [3, 9] was “concomitant and proportional reduction” and the sAPPα in brain [3, 9] was “significant increase”. For the same molecule, the general health ([3]; 1 mg/kg i.p. daily, 17 weeks) was “no differences in general health”, the “intensity of abdominal contractions after injection” value ([3]; 1 mg/kg i.p. daily, 17 weeks, vs vehicle group) was “somewhat elevated” and the deaths ([3]; 7 weeks, 10 mg/kg daily) was “two deaths”. For the same molecule, the deaths ([3]; 7 weeks, 10 mg/kg weekly) was “one death”, the sAPPα in brain ([3]; 6 months old animals, 7 weeks, 1 mg/kg daily) was “no effect” and the Aβ40 in brain [3, 10] was “increase”. For the same molecule, the sAPPα in brain [3, 10] was “slight increase”, the Aβ40 in brain [3, 11] was “slight decrease” and the sAPPα in brain [3, 11] was “slight increase”. The “sAPP secretion in AD cells compared to control fibroblasts” value [4] was “slightly higher” and the “concentration giving significant increases of sAPP secretion” value [5] was 10 µM.
In the case of CCCCCC1CC1CC1CC1CCCCCCCC(=O)O (stereo not shown) [DCP-LA, 2-[(2-pentylcyclopropyl)methyl]cyclopropaneoctanoic acid], the “concentration of maximal effect on PKCε” value (PKCε) is listed as 100 nM.
In the case of CC1=C[C@]23C(=O)[C@@H](C=C(COC(=O)c4ccccc4)[C@@H](O)[C@]2(O)[C@H]1OC(=O)c1ccccc1)[C@H]1[C@@H](C[C@H]3C)C1(C)C [Ingenol 3,20-dibenzoate], the pKi (PKC [6]) is listed as 6.62.
For C/C=C(/C)C(=O)O[C@H]1C(C)=C[C@]23C(=O)[C@@H](C=C(CO)[C@@H](O)[C@]12O)[C@H]1[C@@H](C[C@H]3C)C1(C)C [Ingenol-3-angelate], the antitumor activity [7] is listed as “possesses antitumor activity”.
For CC1=CC[C@H](C)C(C)(C)[C@@H]1/C=C/C(C)=C/CC[C@@]1(CO)[C@H](CCCO)/C(=C(/C)C=O)CC[C@]1(C)O [Iripallidal], the “G150 (concentration required to inhibit growth by 50%)” value (NCI 60 cell line screen) is listed as “micromolar to nanomolar range”.
In the case of CCCCCCCC(=O)OC1C(=CC(=O)OC)CC2CC(CO)OC(=O)CC(O)CCOC(C(C)(C)C)CC3CCOC(C=CC(C)(C)C1(O)O2)O3 (stereo not shown) [bryolog 3], the pKi (PKC [1]; [12]) is listed as 8.19.
In the case of CCCCCCCC(=O)OC1C(=CC(=O)OC)CC2CC(CO)OC(=O)CC(O)CCOC(c3ccccc3)CC3CCOC(C=CC(C)(C)C1(O)O2)O3 (stereo not shown) [bryolog 4], the pKi (PKC [1]; [12]) is listed as 8.64.
For CCCCCCCC(=O)OC1C(=CC(=O)OC)CC2CC(CO)OC(=O)CC(O)CCOC(CCCc3ccc(Br)cc3)CC3CCOC(C=CC(C)(C)C1(O)O2)O3 (stereo not shown) [bryolog 5], the pKi (PKC [1]; [12]) is listed as 8.72.
In the case of CCCCCCCCc1ccc2c3c(c[nH]c13)C[C@@H](CO)NC(=O)[C@H](C(C)C)N2C [octylindolactam V, Octylindolactam V], the pEC50 (protein kinase C) is listed as 7.54.
In the case of CN[C@@H]1C[C@H]2O[C@@](C)([C@@H]1OC)n1c3ccccc3c3c4c(c5c6ccccc6n2c5c31)C(=O)NC4 [staurosporin], the “effect of pre-treatment on bryostatin-induced sAPPα secretion” value ([2]; 100 nM pre-treatment, bryostatin 0.1 nM) was “abolished the effects of 0.1 nM bryostatin; also recorded: completely abolished the effect”.
